Source: article PMC4919066 (PLoS Pathogens, 2016)
Structures can show the parent of a compound that is named as a salt.

Assays:
[1] = system: MCMV; assay: MCMV plaque reduction assay in MEFs; format: cell-based, mouse CMV
Experimental: (§1) The pp28-luciferase HCMV Towne and a GCV-resistant pp28-luciferase were used. The recombinant viruses express luciferase under the control of the late CMV gene promoter, pp28. Luciferase expression is activated 48–72 hours post infection (hpi). The recombinant viruses provide a highly-sensitive reporter system which correlates with plaque reduction assay. The Towne HCMV strain (ATCC VR-977) was used for plaque reduction, quantitative reverse transcriptase PCR (qRT-PCR), and immunoprecipitation assays. Human herpes virus strains were: luciferase HSV1- KOS/Dlux/oriS [52] and clinical isolates of HSV2. The clinical isolates were provided by the clinical microbiology laboratory with no identifiers that can link to a specific subject. Murid Herpesvirus (MCMV: ATCC VR-1399) was used for infection of mouse embryonic fibroblasts (MEFs) and mice.
Human Foreskin Fibroblasts (HFFs) passage 12–16 (ATCC, CRL-2088) and mouse embryonic fibroblasts (MEFs) passage 9–14 (ATCC, CRL-1658) were grown in Dulbecco's Modified Eagle Medium (DMEM) containing 10% fetal bovine serum (FBS) (Gibco, Carlsbad, CA) in a 5% CO2 incubator at 37°C. Infection with HCMV or HSV was performed in HFFs, and infection with mouse CMV was performed in MEFs. For HCMV, cells were seeded in either a 96-well plate or 100 mm culture plates (Corning Costar, Sigma Aldrich) at 0.5 or 2 million cells /plate. Following 90 minute adsorption, media was removed and cells were washed with PBS. Media containing 4% FBS and compounds were added to each well. Infected treated HFFs were collected at 72 hpi and lysates were assayed for luciferase activity using a luciferase assay kit (Promega, Madison, WI) on GloMax-Multi+ Detection System (Promega). In second cycle assays, supernatants were collected from all conditions of the first cycle at 96 hpi and used for infection of fresh HFFs in 96-well plates. Luciferase activity was measured 72 h following second cycle infection. […] After incubation at 37°C for 10 days (for HCMV), 3 days for MCMV or 2 days (for HSV), the overlay was removed and plaques were counted after crystal violet staining.

[2] = system: pp28-luciferase HCMV Towne; assay: Drug combination with GCV, Bliss model; format: cell-based, Human Cytomegalovirus; settings: emetine combined with GCV, luciferase assay
Experimental: The combined inhibitory effect of compounds on HCMV replication was determined in infected HFFs as previously reported. The Bliss model, in which drug combination represents the product of two probabilistically independent events, was used for analysis.

[3] = target: T1, RPS14-MDM2 (Homo sapiens, UniProt P62263); assay: Co-immunoprecipitation RPS14-MDM2; format: cell-based; settings: emetine 75 nM, infected high-density cells, 24 hpi, MG132
T1 construct: endogenous in cells; host or cells: HFFs (ATCC CRL-2088), infected with HCMV Towne, MG132-treated
Experimental: Non-infected, infected or emetine-treated HFFs were treated with MG132 (10 μM) for 12h. Cells were harvested after 24 hpi and lysed with IP buffer containing 150 mM NaCl, 50mM Tris pH 7.5, 2 mM EDTA, 0.5% TritonX-100 and 0.5% NP-40-40. 1 mg of lysate was precleared with bead slurry for 30 min. The precleared lysates were incubated with anti-MDM2 (2 μg) antibody overnight. The antibody complexes were isolated using protein A/G beads (Santa Cruz), washed three times with 50% IP buffer. The immunoprecipitate-protein A/G beads were boiled in SDS sample buffer, and the supernatant was analyzed on SDS-PAGE gels after immunoblotting as described previously. 1% of the cell lysate used for IP was loaded on gels as ‘Input’. Confirmatory reverse IPs were performed as described in each experiment. Isotype control antibodies included: rabbit IgG polyclonal, mouse IgG2a kappa and mouse IgG2b kappa monoclonal (Abcam). Mouse monoclonal RPS19 antibody (Abcam) served as an additional negative control for the IPs. Densitometry analysis was performed to determine relative ratio of immunoprecipitated protein to its input level.

[4] = system: pp28-luciferase HCMV Towne; assay: microbe, parasite or virus in culture; format: cell-based, Human Cytomegalovirus; settings: for normalized pp28-luciferase activity: emetine 75 nM, 72 hpi
Experimental: as §1, with “The Towne HCMV strain (ATCC VR-977) was used for plaque reduction, quantitative reverse transcriptase PCR (qRT-PCR), and immunoprecipitation assays.” left out, “subject.” for “subject. Murid Herpesvirus (MCMV: ATCC VR-1399) was used for infection of mouse embryonic fibroblasts (MEFs) and mice.”
Infection with HCMV or HSV was performed in HFFs, and infection with mouse CMV was performed in MEFs. For HCMV, cells were seeded in either a 96-well plate or 100 mm culture plates (Corning Costar, Sigma Aldrich) at 0.5 or 2 million cells /plate. Following 90 minute adsorption, media was removed and cells were washed with PBS. Media containing 4% FBS and compounds were added to each well. Infected treated HFFs were collected at 72 hpi and lysates were assayed for luciferase activity using a luciferase assay kit (Promega, Madison, WI) on GloMax-Multi+ Detection System (Promega). In second cycle assays, supernatants were collected from all conditions of the first cycle at 96 hpi and used for infection of fresh HFFs in 96-well plates. […] For HSV1-KOS/Dlux/oriS, a luciferase assay was performed at 24 hpi. […] For HCMV or MCMV, HFFs or MEFs were seeded at 0.5 or 2 million cells /plate in a 12-well plate and infected 24 hours later at 100 PFU/well. Following virus adsorption (60 min and 90 min for HSV and HCMV, respectively), virus was aspirated, and DMEM containing 4% fetal bovine serum (FBS) with (for HSV) or without (for HCMV/MCMV) 0.5% carboxymethyl-cellulose, were added with the compounds at indicated concentrations into triplicate wells. After incubation at 37°C for 10 days (for HCMV), 3 days for MCMV or 2 days (for HSV), the overlay was removed and plaques were counted after crystal violet staining.

[5] = system: GCV-resistant pp28-luciferase Towne; assay: GCV-resistant pp28-luciferase HCMV luciferase assay; format: cell-based, Human Cytomegalovirus; settings: Human betaherpesvirus 5, read-out: Mean EC50 ± SD
Experimental: as §1
Human Foreskin Fibroblasts (HFFs) passage 12–16 (ATCC, CRL-2088) and mouse embryonic fibroblasts (MEFs) passage 9–14 (ATCC, CRL-1658) were grown in Dulbecco's Modified Eagle Medium (DMEM) containing 10% fetal bovine serum (FBS) (Gibco, Carlsbad, CA) in a 5% CO2 incubator at 37°C. […] Luciferase activity was measured 72 h following second cycle infection. […] After incubation at 37°C for 10 days (for HCMV), 3 days for MCMV or 2 days (for HSV), the overlay was removed and plaques were counted after crystal violet staining.

Which results are given for CC[C@H]1CN2CCc3cc(OC)c(OC)cc3[C@@H]2C[C@@H]1C[C@H]1NCCc2cc(OC)c(OC)cc21 [emetine, emetine dihydrochloride hydrate]?
MCMV plaque reduction and cell density ([1]; emetine 75 nM, 0.5 and 2 million cells/plate): cell-density dependent response; EC50 ([1]; in Mus musculus, MCMV, plaque assay, read-out: Mean EC50 ± SD): 36 nM; HCMV inhibition in combination with GCV [2]: synergistic; interaction between RPS14 and MDM2 [3]: strongly induced the interaction between RPS14 and MDM2; EC50 ([4]; Human betaherpesvirus 5, read-out: EC50 against pp28-luciferase Towne): 40 ± 1.72 nM; normalized pp28-luciferase activity ([4]; increased cell density): significant reduction; normalized pp28-luciferase activity ([4]; low cell density): no reduction; Hill slope of the concentration-response curve ([4]; pp28-luciferase Towne, HFFs): 3.1; EC50 [5]: 38 nM
